Earlier results on 1 substance are cited in patent US12691176B2, “Ionic nanovesicle suspension and biocide prepared therefrom” (priority 2015, dated 2026).

One data set relates to bacteria. As to conditions: very low concentrations.

As for Polyaminopropyl biguanide [PAPB], the fungicidal activity result in the data set on fungi was “fungicidal”. In the data set with bacteria, the bactericidal concentration is 10 mg/L.
